Experiments:
viral warts = assay: Topical treatment of viral warts; type: in vivo, human; details: 5% cream, twice a day for 11 days
Description: (§1) Topical treatment with the above described cream (twice a day for 11 days) of human skin (basal conditions shown in FIG. 2A) results in a reduction of seborrheic keratosis (big circle) as well as of viral warts (small circle), as shown in FIG. 2B.

hair growth = assay: Effect of topical cream on hair growth; type: in vivo, human; details: 5% cream, potassium salt, twice a day for 3 months
Description: 2,5-dihydroxybenzenesulfonic acid, potassium salt, formulated in the form of cream was used and its composition was the same as that used in example 1.

seborrheic keratosis = assay: Topical treatment of seborrheic keratosis; type: in vivo, human
Description: as §1
Another example of the effect of 2,5-dihydroxybenzenesulfonate on seborrheic keratosis is shown in FIG. 3, wherein the seborrheic keratosis is reduced due to the topical treatment on the affected area for 4 weeks, twice a day, with an emulsion containing the 2,5-dihydroxybenzenesulfonic acid, 2.5% by weight.

actinic keratosis = assay: Topical treatment of actinic keratosis lesions in patients; type: in vivo, human; details: for actinic keratosis: 2.5% by weight emulsion, twice a day, two lesions in the same patient (scalp)
Description: An emulsion containing 2.5% by weight of 2,5-dihydroxybenzenesulfonic acid was used to treat two lesions of actinic keratosis in the same patient, as shown in FIGS. 4 and 5. […] Calcium salt of 2,5-dihydroxybenzenesulfonic acid was used.
(§2) In this study, 2,5-dihydroxybenzenesulfonic acid, potassium salt, formulated as 5% by weight in the form of cream has been used, since this type of formulation is a habitual procedure for topical treatments of the skin. Distilled water has been used as the aqueous phase of the cream. The oil phase thereof may comprise cetyl alcohol, stearyl alcohol or vaseline. Span (sorbitan monooleate) is an effective emulsifier to make the cream.
Active principle: 2,5-dihydroxybenzenesulfonic acid, potassium salt, 5% by weight.
Excipients: cetyl alcohol (2.5%), stearyl alcohol (2.5%), liquid vaseline (30%), white soft vaseline (20%), sorbitan monooleate (5%) and distilled water (q.s. to 100 g).

human photoaged skin = assay: Topical treatment of human photoaged skin with cream; type: in vivo; details: 5% cream, potassium salt, twice a day for 3 months
Description: as §2
Active principle: 2,5-dihydroxybenzenesulfonic acid, potassium salt, 5% by weight. Excipients: cetyl alcohol (2.5%), stearyl alcohol (2.5%), liquid vaseline (30%), white soft vaseline (20%), sorbitan monooleate (5%) and distilled water (q.s. to 100 g).
Lightening of skin hyperpigmentation after the application of 2,5-dihydroxybenzenesulfonic acid may justify the use thereof to treat melanic dyschromia with hyperpigmentation as occurs, among other pathologies, in the Mongolian spot, the nevus of Ota, the nevus of Ito, the nevus of Becker, ephelides (freckles), the lentigo malign melanoma, the café-au-lait macules or the melasma (chloasma).

[1] = system: cell line of preadipocytes 3T3L1; assay: Adipogenesis assay in preadipocytes, Oil Red O staining; type: cell-based
Description: The preadipocytes were seeded in a 6 well plate where they grew up to the confluence In a standard culture medium [Dulbecco's Essential Medium (DEM)], supplemented with 1.5 g/L of sodium bicarbonate, non essential aminoacids and 10% bovine fetal serum. […] The culture medium was renewed every two days. After seven days, the differentiation to adipocytes was initiated in the six wells by the addition of dexametasone ([…]), 3-isobutyl-1-methylxanthine (0.5 mM) and insuline (160 nM) during two days, followed by the substitution of the culture medium by another culture medium containing insuline (160 nM) during five days. […] The culture medium was renewed every two days.
12 days later, the adipogenesis was determined by staining with Oil Red O to check the cytoplasmic accumulation of triglycerides. The cells were washed with phosphate buffer (PBS), fixed with 4% paraformaldehyde and stained during thirty minutes with Oil Red O. Isopropanol was used to remove the dye from the cells to quantify the accumulation of lipids; the absorbance thereof was measured at 510 nm in a spectrophotometer.

[2] = target: T1, fibroblast growth factor-1 (FGF-1) (Homo sapiens, UniProt P05230); assay: Structural interaction with FGF-1 from diffraction of complex crystals; type: binding; details: electron density contoured at 1σ; acetoxyl groups kept when bound
T1 construct: host or cells: added to Balb/c 3T3 fibroblast cultures
Description: As of the diffraction from complex crystals of FGF-1: 2-acetoxy-5-hydroxybenzenesulfonic acid, FGF-1: 5-acetoxy-2-hydroxybenzenesulfonic acid and FGF-1: 2,5-diacetoxybenzenesulfonic acid, the complex structures were calculated and represented. In FIGS. 20, 21 and 22, representing the surface of the protein cloured according to its electrostatic potential (light grey: negative charge, dark grey: positive charge, white: areas with no charge), the interaction form of the 2-acetoxy-5-hydroxybenzenesulfonic acid, 5-acetoxy-2-hydroxybenzenesulfonic acid and 2,5-diacetoxybenzenesulfonic acid, respectively, with the FGF-1 may be observed.

[3] = target: T1, fibroblast growth factor-1 (FGF-1); assay: Inhibition of fibroblast mitogenesis induced by FGF-1 in quiescent Balb/c 3T3 cultures; type: cell-based; details: quiescent cultures of Balb/c 3T3 fibroblasts; potassium salts, 2-acetoxy-5-hydroxybenzenesulfonate as calcium salt
Description: The evaluated compounds were used in the form of potassium salt, except in the first case in which calcium salt was used. The experiments were carried out as described in Fernández-Tornero C et al. J Biol Chem, 2003.

[4] = system: rabbit subcutaneous fat preadipocytes; assay: Proliferation of subcutaneous fat preadipocytes, crystal violet; type: cell-based; details: 72 hours
Description: The primary cultures of rabbit preadipocytes were obtained from the inguinal fat of New Zealand rabbits. Once the fat is removed, it is processed by mechanical disaggregation and enzymatic digestion with 0.075% type I collagenase (Gibco BRL, Paisley, Scotland, RU) for 30 minutes at 37°. The mature adipocytes are separated, removed by centrifugation (300×g, 5 min) and the cell sediment is selected. Then, the mononuclear cells with low cell density are isolated by density gradient centrifugation with Ficoll-Paque (Amersham Biosciences, Uppsala, Sweden). Once the low density mononuclear cells are obtained, they are seeded in a 75 cm^2 culture flask and cultured in an incubator at 37° C. with air containing 5% CO2, in an Eagle medium modified by Dulbecco (DMEM) (Gibco) with 10% of bovine fetal serum (Gibco) and 0.1% of antibiotic-antimicotic (Gibco). The culture medium is replaced 24 hours later to remove the cells present in the supernatant, and to select the cells adhered to the culture flask. […]
The rabbit preadipocytes proliferation experiments were carried out in 24-well plates. […] The proliferation of preadipocytes was evaluated 72 hours later, and at that moment the cells were fixed with 1% glutaraldehyde. The cellular proliferation was evaluated using the crystal violet method, by measuring the absorbance at a wave length of 595 nm.

mouse glioma C6 cells = assay: Proliferation of glioma C6 cells, crystal violet; type: cell-based; details: 500 μM, 48 hours, potassium salts, p<0.001
Description: The cell line used was that of mouse glioma C6 cells. Once attached, the cells were treated o not treated (controls) with (5A-2HBS) (500 μM) or (2A-5HBS) (500 μM) and they were allowed to proliferate during 48 hours. After that, the proliferation of glioma cells was evaluated by staining the fixed cells with crystal violet. The number of cells is proportional to the amount of retained dye, which was spectrophotometrically determined by measuring absorbance at 595 nm after removing the dye from the cells.

T1 sequence (P05230 whole entry, species assumed): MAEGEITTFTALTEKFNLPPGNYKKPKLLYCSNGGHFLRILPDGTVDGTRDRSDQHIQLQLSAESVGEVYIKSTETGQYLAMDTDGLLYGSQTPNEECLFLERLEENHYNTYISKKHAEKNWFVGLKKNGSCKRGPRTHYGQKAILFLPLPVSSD

O=S(=O)(O)c1cc(O)ccc1O [2,5-dihydroxybenzenesulfonic acid]
viral warts (viral warts): reduction | hair in the area of application (hair growth): disappearance of hair in the area of application | seborrheic keratosis (seborrheic keratosis; 2.5% by weight emulsion, twice a day for 4 weeks, facial): reduced | seborrheic keratosis (seborrheic keratosis; 5% cream, twice a day for 11 days): reduction in the seborrheic keratosis | actinic keratosis lesion in the ear (actinic keratosis; 5% cream, topical, after 12 days): reduction of the actinic keratosis | actinic keratosis lesion in the ear (actinic keratosis; 5% cream, topical, after 15 days): the lesion was cleared | actinic keratosis lesion in the nose (actinic keratosis; 5% cream, topical, after 30 days): reduction of the actinic keratosis | actinic lentigo areas of photoaged skin (human photoaged skin): disappearance of actinic lentigo areas | wrinkles of photoaged skin (human photoaged skin): reduction of the wrinkles | number of preadipocytes differentiated in adipocytes ([1]; 3T3-L1 cells, 25 μM, during 12 hours (so in the source)): very significant reduction

CC(=O)Oc1ccc(O)cc1S(=O)(=O)O [2A-5HBS, 2-acetoxy-5-hydroxybenzenesulfonic acid]
location of the compound bound to FGF-1 in the complex crystal [2]: located at a site very close to the site that, as described, is occupied by the 2,5-dihydroxybenzenesulfonic acid | FGF-1 induced mitogenesis [3]: Inhibition of FGF-1 mitogenesis was observed | concentration as of which a significant effect on preadipocyte proliferation is obtained [4]: 100 µM | proliferation of preadipocytes (absorbance at 595 nm) ([4]; DHBS 10 to 100 μM, 2A-5HBS 10 to 500 μM, concentration dependent): significantly inhibited | proliferation of glioma cells (absorbance at 595 nm) (mouse glioma C6 cells): caused the inhibition of the proliferation

CC(=O)Oc1ccc(O)c(S(=O)(=O)[O-])c1.[K+] [5A-2HBS, potassium 5-acetoxy-2-hydroxybenzenesulfonate]
location of the compound bound to FGF-1 in the complex crystal [2]: located at a site very close to the site that, as described, is occupied by the 2,5-dihydroxybenzenesulfonic acid | FGF-1 induced mitogenesis [3]: Inhibition of FGF-1 mitogenesis was observed | proliferation of glioma cells (absorbance at 595 nm) (mouse glioma C6 cells): caused the inhibition of the proliferation

CC(=O)Oc1ccc(OC(C)=O)c(S(=O)(=O)[O-])c1.[K+] [DABS, potassium 2,5-diacetoxybenzene sulfonate]
location of the compound bound to FGF-1 in the complex crystal [2]: located at a site very close to the site that, as described, is occupied by the 2,5-dihydroxybenzenesulfonic acid | FGF-1 induced mitogenesis [3]: Inhibition of FGF-1 mitogenesis was observed

O=C(O)c1cc(O)ccc1O [gentisic acid, 2,5-dihydroxybenzoic acid]
accumulation of triglycerides (percentage of absorbance at 510 nm) versus untreated cells ([1]; 50 μM, p<0.05): significantly smaller | differentiation of the preadipocytes and adipogenesis ([1]; 3T3-L1 preadipocytes, 50 μM, two weeks): inhibits the differentiation of the preadipocytes and the adipogenesis

O=S(=O)([O-])c1cc(O)ccc1O.[K+] [potassium 2,5-dihydroxybenzenesulfonate]
FGF-1 induced mitogenesis [3]: Inhibition of the mitogenesis

calcium 2,5-dihydroxybenzenesulfonate
actinic keratosis (actinic keratosis; after 4 weeks): the effect was even more evident | actinic keratosis (actinic keratosis; after 15 days): clearly reduced
